Experimental data: ChEMBL document CHEMBL3046835, “Insecticidal activity influence of beta-cypermethrin on the pathogenicity of Beauveria bassiana against Aleurodicus disperses” (Crop Prot, 2013)
In brackets after ≈: the same amount, converted by molar mass.

Legend:
[1] = tested on: Aleurodicus dispersus; assay: Insecticidal activity against third-instar nymph stage of Aleurodicus dispersus in guava plant leaves assessed as mortality at 4 mg/l measured after 9 days under laboratory conditions (reference value: 3%); type: functional; settings: 216 h
[2] = tested on: Aleurodicus dispersus; assay: Insecticidal activity against third-instar nymph stage of Aleurodicus dispersus in guava plant leaves assessed as mortality at 2 mg/L applied via hand sprayer measured after 3 days in presence of 10^8 Beauveria bassiana conidial suspension under field conditions (reference value: 22.2 +/-3.15%); type: functional; settings: 72 h
[3] = tested on: Aleurodicus dispersus; assay: Insecticidal activity against third-instar nymph stage of Aleurodicus dispersus in guava leaves assessed as mortality at 5 mg/l treated for 15 s measured at 27 +/-2 degC after 48 hr (reference value: 3%); type: functional
[4] = tested on: Aleurodicus dispersus; assay: Insecticidal activity against third-instar nymph stage of Aleurodicus dispersus in guava plant leaves assessed as mortality at 8 mg/l measured after 3 days in presence of 10^8 Beauveria bassiana conidial suspension under laboratory conditions (reference value: 24.3 +/-1.03%); type: functional; settings: 72 h
[5] = tested on: Aleurodicus dispersus; assay: Insecticidal activity against third-instar nymph stage of Aleurodicus dispersus in guava plant leaves assessed as mortality at 2 mg/L applied via hand sprayer measured after 9 days in presence of 10^8 Beauveria bassiana conidial suspension under field conditions (reference value: 42.3 +/-3.58%); type: functional; settings: 216 h
[6] = tested on: Beauveria bassiana; assay: Inhibition of Beauveria bassiana Bb-N1 mycelial growth at 4 mg/L measured at 27 +/-2 degC after 10 days (reference value: 2.4 +/-0.19%); type: organism-based; set-up: scale not given: the % may be the effect or the level left; settings: in vivo, 240 h
[7] = tested on: Aleurodicus dispersus; assay: Insecticidal activity against third-instar nymph stage of Aleurodicus dispersus in guava plant leaves assessed as mortality at 4 mg/l measured after 6 days in presence of 10^8 Beauveria bassiana conidial suspension under laboratory conditions (reference value: 32.8 +/-2.39%); type: functional; settings: 144 h
[8] = tested on: Aleurodicus dispersus; assay: Insecticidal activity against third-instar nymph stage of Aleurodicus dispersus in guava plant leaves assessed as mortality at 4 mg/l measured after 6 days under laboratory conditions (reference value: 3%); type: functional; settings: 144 h
[9] = tested on: Aleurodicus dispersus; assay: Insecticidal activity against third-instar nymph stage of Aleurodicus dispersus in guava plant leaves assessed as mortality at 4 mg/L applied via hand sprayer measured after 6 days in presence of 10^8 Beauveria bassiana conidial suspension under field conditions (reference value: 26.9 +/-3.04%); type: functional; settings: 144 h
[10] = tested on: Aleurodicus dispersus; assay: Insecticidal activity against third-instar nymph stage of Aleurodicus dispersus in guava plant leaves assessed as mortality at 8 mg/l measured after 9 days in presence of 10^8 Beauveria bassiana conidial suspension under laboratory conditions (reference value: 45.7 +/-3.18%); type: functional; settings: 216 h
[11] = tested on: Aleurodicus dispersus; assay: Insecticidal activity against third-instar nymph stage of Aleurodicus dispersus in guava leaves assessed as mortality at 5 mg/l treated for 15 s measured at 27 +/-2 degC after 24 hr (reference value: 2%); type: functional
[12] = tested on: Aleurodicus dispersus; assay: Insecticidal activity against third-instar nymph stage of Aleurodicus dispersus in guava plant leaves assessed as mortality at 8 mg/L applied via hand sprayer measured after 3 days under field conditions (reference value: 3%); type: functional; settings: 72 h
[13] = tested on: Beauveria bassiana; assay: Effect on Beauveria bassiana Bb-N1 conidial germination at 2 mg/L measured at 27 +/-2 degC after 24 hr (reference value: 94.85 +/-2.13%); type: ADME, organism-based; settings: in vivo
[14] = tested on: Aleurodicus dispersus; assay: Insecticidal activity against third-instar nymph stage of Aleurodicus dispersus in guava plant leaves assessed as mortality at 4 mg/l measured after 9 days in presence of 10^8 Beauveria bassiana conidial suspension under laboratory conditions (reference value: 45.7 +/-3.18%); type: functional; settings: 216 h
[15] = tested on: Aleurodicus dispersus; assay: Insecticidal activity against third-instar nymph stage of Aleurodicus dispersus in guava plant leaves assessed as mortality at 8 mg/L applied via hand sprayer measured after 3 days in presence of 10^8 Beauveria bassiana conidial suspension under field conditions (reference value: 22.2 +/-3.15%); type: functional; settings: 72 h
[16] = tested on: Aleurodicus dispersus; assay: Insecticidal activity against third-instar nymph stage of Aleurodicus dispersus in guava plant leaves assessed as mortality at 4 mg/l measured after 3 days under laboratory conditions (reference value: 2%); type: functional; settings: 72 h
[17] = tested on: Aleurodicus dispersus; assay: Insecticidal activity against third-instar nymph stage of Aleurodicus dispersus in guava plant leaves assessed as mortality at 8 mg/l measured after 3 days under laboratory conditions (reference value: 2%); type: functional; settings: 72 h
[18] = tested on: Aleurodicus dispersus; assay: Insecticidal activity against third-instar nymph stage of Aleurodicus dispersus in guava plant leaves assessed as mortality at 2 mg/L applied via hand sprayer measured after 3 days under field conditions (reference value: 3%); type: functional; settings: 72 h
[19] = tested on: Aleurodicus dispersus; assay: Insecticidal activity against third-instar nymph stage of Aleurodicus dispersus in guava plant leaves assessed as mortality at 4 mg/L applied via hand sprayer measured after 3 days in presence of 10^8 Beauveria bassiana conidial suspension under field conditions (reference value: 22.2 +/-3.15%); type: functional; settings: 72 h
[20] = tested on: Aleurodicus dispersus; assay: Insecticidal activity against third-instar nymph stage of Aleurodicus dispersus in guava leaves assessed as mortality at 2.5 mg/l treated for 15 s measured at 27 +/-2 degC after 24 hr (reference value: 2%); type: functional
[21] = tested on: Beauveria bassiana; assay: Effect on Beauveria bassiana Bb-N1 conidial production at <8 mg/L measured at 27 +/-2 degC after 10 days; type: ADME, organism-based; settings: in vivo, 240 h
[22] = tested on: Aleurodicus dispersus; assay: Insecticidal activity against third-instar nymph stage of Aleurodicus dispersus in guava plant leaves assessed as mortality at 2 mg/L applied via hand sprayer measured after 6 days under field conditions (reference value: 3.5%); type: functional; settings: 144 h
[23] = tested on: Aleurodicus dispersus; assay: Insecticidal activity against third-instar nymph stage of Aleurodicus dispersus in guava plant leaves assessed as mortality at 2 mg/l measured after 9 days in presence of 10^8 Beauveria bassiana conidial suspension under laboratory conditions (reference value: 45.7 +/-3.18%); type: functional; settings: 216 h
[24] = tested on: Aleurodicus dispersus; assay: Insecticidal activity against third-instar nymph stage of Aleurodicus dispersus in guava plant leaves assessed as mortality at 2 mg/L applied via hand sprayer measured after 6 days in presence of 10^8 Beauveria bassiana conidial suspension under field conditions (reference value: 26.9 +/-3.04%); type: functional; settings: 144 h
[25] = tested on: Aleurodicus dispersus; assay: Insecticidal activity against third-instar nymph stage of Aleurodicus dispersus in guava leaves assessed as mortality treated for 15 s measured at 27 +/-2 degC after 24 hr; type: functional
[26] = tested on: Aleurodicus dispersus; assay: Insecticidal activity against third-instar nymph stage of Aleurodicus dispersus in guava leaves assessed as mortality at 20 mg/l treated for 15 s measured at 27 +/-2 degC after 48 hr (reference value: 3%); type: functional
[27] = tested on: Aleurodicus dispersus; assay: Insecticidal activity against third-instar nymph stage of Aleurodicus dispersus in guava leaves assessed as mortality at 10 mg/l treated for 15 s measured at 27 +/-2 degC after 24 hr (reference value: 2%); type: functional
[28] = tested on: Aleurodicus dispersus; assay: Insecticidal activity against third-instar nymph stage of Aleurodicus dispersus in guava plant leaves assessed as mortality at 8 mg/l measured after 9 days under laboratory conditions (reference value: 3%); type: functional; settings: 216 h

## CC1(C)[C@H](C=C(Cl)Cl)[C@H]1C(=O)O[C@@H](C#N)c1cccc(Oc2ccccc2)c1 [BETA-CYPERMETHRIN]
[1]
  mortality at 4 µg/mL: 34.1%
[2]
  mortality at 2 µg/mL: 32.3%
[3]
  mortality at 5 µg/mL: 32.3%
[4]
  mortality at 8 µg/mL: 76.1%
[5]
  mortality at 2 µg/mL: 54.2%
[6]
  Activity: 3.1%
[7]
  mortality at 4 µg/mL: 77.6%
[8]
  mortality at 4 µg/mL: 34.1%
[9]
  mortality at 4 µg/mL: 60.5%
[10]
  mortality at 8 µg/mL: 80.6%
[11]
  mortality at 5 µg/mL: 16.2%
[12]
  mortality at 8 µg/mL: 29.4%
[13]
  germination rate: 93.78%
[14]
  mortality at 4 µg/mL: 77.6%
[15]
  mortality at 8 µg/mL: 42.3%
[16]
  mortality at 4 µg/mL: 34.1%
[17]
  mortality at 8 µg/mL: 39.3%
[18]
  mortality at 2 µg/mL: 20.9%
[19]
  mortality at 4 µg/mL: 37.6%
[20]
  mortality at 2.5 µg/mL: 9.1%
[21]
  Activity: Non-toxic
[22]
  mortality at 2 µg/mL: 20.9%
[23]
  mortality at 2 µg/mL: 75.3%
[24]
  mortality at 2 µg/mL: 50.9%
[25]
  LC95: 1551.51 µg/mL (≈ 3730 µM)
[25]; Aleurodicus dispersus, Nymph stage, 24 h
  LC50: 50 µg/mL (≈ 120 µM)
[26]
  mortality at 20 µg/mL: 52.8%
[27]
  mortality at 10 µg/mL: 23.1%
[28]
  mortality at 8 µg/mL: 39.3%
